Patent publication US20240270821A1, “GIP/GLP1/GCG TRI-RECEPTOR AGONISTS AND USES THEREOF” (priority 2023, published 2024)
Starred links: 1 amine or outer side, 2 acyl side, 3 side chain; linkers in the order of their positions; H or OH if unused. Non-standard residues stand in square brackets, D forms with d. Groups on a side chain read outwards from the residue. *: point of attachment. C18 diacid = O=C(O)CCCCCCCCCCCCCCCCC(=O)*; γGlu = O=C(O)[C@H](CCC(=O)[*:2])N[*:1]; αMe4Pal = C[C@](N)(Cc1ccncc1)C(=O)O; αMeY = C[C@](N)(Cc1ccc(O)cc1)C(=O)O; 4Pal = N[C@@H](Cc1ccncc1)C(=O)O; αMeL = CC(C)C[C@](C)(N)C(=O)O; Orn = NCCC[C@H](N)C(=O)O; AEEA = NCCOCCOCC(=O)O; Aib = CC(C)(N)C(=O)O

Legend:
Format in all cases: cell-based
[1] = target: T1, hGIPR (Homo sapiens, UniProt P48546); test: Functional cAMP activation in the presence of 0.1% casein (no HSA); details: in the presence of 0.1% casein (no HSA); geometric mean; read-out: Relative cAMP EC50, hGIPR;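 further: intracellular cAMP rise after 30 min at 37 °C read by HTRF against a standard curve, scaled between buffer alone (0%) and top control ligand concentration (100%), four-parameter fit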
T1 sequence (P48546 22-466): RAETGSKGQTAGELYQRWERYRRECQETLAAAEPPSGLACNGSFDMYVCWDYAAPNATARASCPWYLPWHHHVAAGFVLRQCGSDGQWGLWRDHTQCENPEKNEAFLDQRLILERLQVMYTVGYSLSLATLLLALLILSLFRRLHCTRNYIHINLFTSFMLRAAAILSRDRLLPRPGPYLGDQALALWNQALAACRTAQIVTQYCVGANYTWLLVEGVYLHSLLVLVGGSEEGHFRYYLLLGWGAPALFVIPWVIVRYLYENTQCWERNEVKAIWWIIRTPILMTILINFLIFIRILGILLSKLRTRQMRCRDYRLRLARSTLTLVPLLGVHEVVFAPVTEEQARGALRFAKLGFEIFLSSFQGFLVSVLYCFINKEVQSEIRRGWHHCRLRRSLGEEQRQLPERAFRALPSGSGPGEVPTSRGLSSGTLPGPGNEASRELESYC

[2] = target: T2, hGLP-1R (Homo sapiens, UniProt P43220); test: Functional cAMP activity in the presence of 1% HSA; details: read-out: cAMP Rel EC50, hGLP-1R
T2 sequence (P43220 24-463): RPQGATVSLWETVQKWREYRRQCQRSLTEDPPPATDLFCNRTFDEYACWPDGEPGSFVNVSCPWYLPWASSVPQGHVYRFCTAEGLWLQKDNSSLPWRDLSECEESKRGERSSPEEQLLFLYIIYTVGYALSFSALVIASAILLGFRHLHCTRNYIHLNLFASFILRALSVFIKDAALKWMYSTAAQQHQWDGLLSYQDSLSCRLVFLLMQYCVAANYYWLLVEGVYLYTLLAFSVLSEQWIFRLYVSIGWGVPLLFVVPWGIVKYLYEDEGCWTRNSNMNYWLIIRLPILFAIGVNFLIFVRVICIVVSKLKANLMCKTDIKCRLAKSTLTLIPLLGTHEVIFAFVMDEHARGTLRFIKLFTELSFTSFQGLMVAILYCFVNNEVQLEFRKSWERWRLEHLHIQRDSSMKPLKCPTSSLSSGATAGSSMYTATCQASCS

[3] = target: T1, hGIPR; test: Functional cAMP activity in the presence of 1% HSA; details: read-out: cAMP Rel EC50, hGIPR
[4] = target: human GcgR (Homo sapiens, UniProt P47871); test: Functional cAMP activity in the presence of 1% HSA; details: read-out: cAMP Rel EC50, hGcgR
Sequence of human GcgR (P47871 26-477): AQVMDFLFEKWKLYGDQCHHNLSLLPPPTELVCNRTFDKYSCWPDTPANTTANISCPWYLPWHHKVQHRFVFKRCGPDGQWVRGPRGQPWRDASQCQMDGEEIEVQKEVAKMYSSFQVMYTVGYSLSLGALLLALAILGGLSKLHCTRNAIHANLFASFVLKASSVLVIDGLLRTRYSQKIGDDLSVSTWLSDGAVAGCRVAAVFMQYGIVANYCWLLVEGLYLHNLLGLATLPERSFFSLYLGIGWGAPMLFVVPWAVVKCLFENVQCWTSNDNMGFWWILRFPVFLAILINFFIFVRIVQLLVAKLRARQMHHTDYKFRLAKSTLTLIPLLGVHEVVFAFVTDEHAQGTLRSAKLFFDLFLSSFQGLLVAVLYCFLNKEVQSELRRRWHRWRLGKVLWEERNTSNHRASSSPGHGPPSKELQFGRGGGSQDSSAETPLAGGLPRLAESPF

[5] = target: T2, hGLP-1R; test: Functional cAMP activation in the presence of 0.1% casein (no HSA); details: in the presence of 0.1% casein (no HSA); geometric mean; read-out: Relative cAMP EC50, hGLP-1R;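 on Relative cAMP EC50, hGLP-1R: intracellular cAMP rise after 30 min at 37 °C read by HTRF, normalized between buffer only (0%) and maximal control ligand (100%), four-parameter variable-slope fit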;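 on Relative cAMP EC50, hGcgR: intracellular cAMP rise after 30 min at 37 °C, read by HTRF against a cAMP standard curve, scaled from buffer only (0%) to maximal control ligand response (100%)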
[6] = target: hGcgR (Homo sapiens, UniProt P47871); test: as above; details: in the presence of 0.1% casein (no HSA); geometric mean; read-out: Relative cAMP EC50, hGcgR;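 further: intracellular cAMP rise after 30 min at 37 °C, read by HTRF against a cAMP standard curve, scaled from buffer only (0%) to maximal control ligand response (100%)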
Sequence of hGcgR (P47871 26-477): as above

With “H-Y[Aib]QGTFTSD[4Pal]SQ[αMeL]LD[Orn]K([AEEA-γGlu-C18 diacid])AQ[αMe4Pal]AFI[dE][αMeY]LIEGGPSSGAPPPSGSEE-NH2 [Example 1042]” the EC50 [1] was 1.3 nM, the EC50 [2] was 642 nM and the EC50 [3] was 84.8 nM. The EC50 [4] was 1890 nM, the EC50 [5] was 10.3 nM and the EC50 [6] was 27.5 nM.
With “H-Y[Aib]QGTFTSD[4Pal]SQ[αMeL]LD[Orn]K([AEEA-γGlu-C18 diacid])AQ[αMe4Pal]QFIE[αMeY]LIA[Aib]GPSSGEPPPSGSEE-NH2 [Example 1100]” the EC50 [1] was 0.0694 nM, the EC50 [2] was 77.2 nM and the EC50 [3] was 9.04 nM. For the same substance, the EC50 [4] was 577 nM, the EC50 [5] was 0.514 nM and the EC50 [6] was 5.28 nM.
With “H-Y[Aib]QGTFTSD[4Pal]SQ[αMeL]LD[Orn]K([AEEA-γGlu-C18 diacid])AQ[αMe4Pal]QFIE[αMeY]LIEGGPSSGAPPPSGS-NH2 [Example 857]” the EC50 [1] was 0.441 nM, the EC50 [2] was 87.3 nM and the EC50 [3] was 36.1 nM. For the same substance, the EC50 [4] was 1050 nM, the EC50 [5] was 0.433 nM and the EC50 [6] was 6.21 nM.
Substance “H-Y[Aib]QGTFTSD[4Pal]SQ[αMeL]LD[Orn]K([AEEA-γGlu-C18 diacid])AQ[αMe4Pal]QFIE[αMeY]LIEGGPSSGAPPPSGSEE-NH2 [Example 1045]” has an EC50 [1] of 0.781 nM, an EC50 [2] of 276 nM and an EC50 [3] of 107 nM. For the same substance, the EC50 [4] was 1540 nM, the EC50 [5] was 1.51 nM and the EC50 [6] was 7.35 nM.
“H-Y[Aib]QGTFTSD[4Pal]SQ[αMeL]LD[Orn]K([AEEA-γGlu-γGlu-C18 diacid])AQ[αMe4Pal]AFIEYLIE[dA]GPSSGEPPPSGS-NH2 [Example 1018]” was tested, and the EC50 [1] was 0.51 nM, the EC50 [2] was 163 nM and the EC50 [3] was 14.1 nM. For the same substance, the EC50 [4] was 568 nM, the EC50 [5] was 1.69 nM and the EC50 [6] was 5.29 nM.
Substance “H-Y[Aib]QGTFTSD[4Pal]SQ[αMeL]LD[Orn]K([Glu-γGlu-C18 diacid])AQ[αMe4Pal]AFIQ[αMeY]LIEGGPSSGAPPPSGSEEE-NH2 [Example 1077]” has an EC50 [1] of 0.23 nM, an EC50 [2] of 408 nM and an EC50 [3] of 27.8 nM. For the same substance, the EC50 [4] was 3160 nM, the EC50 [5] was 1.48 nM and the EC50 [6] was 18.8 nM.
In the case of “H-Y[Aib]QGTFTSD[4Pal]SQ[αMeL]LD[Orn]K([dE-γGlu-C18 diacid])AQ[αMe4Pal]AFIE[αMeY]LIAGGPSSGAPPPSGSEE-NH2 [Example 1074]”, the EC50 [1] is reported as 0.0745 nM, the EC50 [2] is reported as 101 nM and the EC50 [3] is reported as 8.49 nM. For the same substance, the EC50 [4] was 1990 nM, the EC50 [5] was 0.794 nM and the EC50 [6] was 22.8 nM.
Work on “H-Y[Aib]QGTFTSD[4Pal]SQ[αMeL]LD[Orn]K([dE-γGlu-C18 diacid])AQ[αMe4Pal]AFIE[αMeY]LIE[Aib]GPSSGEPPPSGSEE-NH2 [Example 1103]” yielded an EC50 [1] of 0.0723 nM, an EC50 [2] of 183 nM and an EC50 [3] of 19.5 nM. It also gave an EC50 [4] of 1350 nM, an EC50 [5] of 1.06 nM and an EC50 [6] of 11.1 nM.
Work on “H-Y[Aib]QGTFTSD[4Pal]SQ[αMeL]LD[Orn]K([dE-γGlu-C18 diacid])AQ[αMe4Pal]AFIE[αMeY]LLAGGPSSGAPPPSGSEEE-NH2 [Example 1082]” yielded an EC50 [1] of 0.099 nM, an EC50 [2] of 677 nM and an EC50 [3] of 12.3 nM. It also gave an EC50 [4] of 1530 nM, an EC50 [5] of 4.13 nM and an EC50 [6] of 12.3 nM.
“H-Y[Aib]QGTFTSD[4Pal]SQ[αMeL]LD[Orn]K([dE-γGlu-C18 diacid])AQ[αMe4Pal]AFIQ[αMeY]LIA[Aib]GPSSGEPPPSGGGE-NH2 [Example 1130]” showed an EC50 [1] of 0.0441 nM, an EC50 [2] of 44.5 nM and an EC50 [3] of 3.73 nM. The EC50 [4] was 1240 nM, the EC50 [5] was 0.641 nM and the EC50 [6] was 13.3 nM.
Substance “H-Y[Aib]QGTFTSD[4Pal]SQ[αMeL]LD[Orn]K([dE-γGlu-C18 diacid])AQ[αMe4Pal]QFIE[αMeY]LLAGGPSSGAPPPSGSEEE-NH2 [Example 1084]” has an EC50 [1] of 0.0975 nM, an EC50 [2] of 761 nM and an EC50 [3] of 17.2 nM. The EC50 [4] was 1390 nM, the EC50 [5] was 10.3 nM and the EC50 [6] was 11.5 nM.
Work on “H-Y[Aib]QGTFTSD[4Pal]SQ[αMeL]LD[Orn]K([dE-γGlu-C18 diacid])AQ[αMe4Pal]QFIQ[αMeY]LIE[Aib]GPSSGEPPPSGGGE-NH2 [Example 1129]” yielded an EC50 [1] of 0.048 nM, an EC50 [2] of 56.6 nM and an EC50 [3] of 4.16 nM. The EC50 [4] was 796 nM, the EC50 [5] was 0.501 nM and the EC50 [6] was 6.11 nM.
With “H-Y[Aib]QGTFTSD[4Pal]SQ[αMeL]LD[Orn]K([γGlu-γGlu-C18 diacid])AQ[Aib]AFIE[αMeY]LLEGGPSSGAPPPSGSEE-NH2 [Example 946]” the EC50 [1] was 0.353 nM, the EC50 [2] was 576 nM and the EC50 [3] was 57.4 nM. It also gave an EC50 [4] of 1950 nM, an EC50 [5] of 2.05 nM and an EC50 [6] of 16.5 nM.
